How the values were obtained:
[1] = system: DLD-1 colorectal adenocarcinoma cells; assay: Colony forming (clonogenic) assay; format: cell-based, human
Protocol: (§1) For colony forming assay, HT-29 and DLD-1 cells were seeded in 12-well plates at a density of 500 cells in 2 mL of growth medium per well. After overnight incubation, the cells were exposed to the compounds Les-6547, Les-6557, and doxorubicin at concentrations ranging from 0.1 to 100 µM for 72 h. Following treatment, the medium was replaced with fresh medium without the compounds. After 14 days of culture, cells were rinsed with PBS and fixed with cold methanol for 10 min. Subsequently, the cells were stained with a 0.1% crystal violet solution for 10 min. After washing, the plates were allowed to dry at room temperature. Numbers of colonies were quantified using ImageJ software (version 1.5.4; National Institutes of Health, Bethesda, MD, USA). The effect of the compounds on the colony-forming capacity was calculated as a percentage of colonies relative to the untreated control group.

[2] = system: HT-29 colorectal adenocarcinoma cells; assay: Colony forming (clonogenic) assay; format: cell-based, human; conditions: Homo sapiens
Protocol: as §1

[3] = system: DLD-1 colorectal adenocarcinoma cells; assay: MTT assay; format: cell-based, human; conditions: Homo sapiens, DLD-1, MTT, M ± SD, n = 3, read-out: IC50
Protocol: (§2) DLD-1, HaCaT, and Balb/c 3T3 cells were maintained in DMEM, while HT-29 cells were grown in McCoy’s 5A medium with 10% FBS and 1% penicillin/streptomycin. All cell lines were incubated at 37 °C in a humidified atmosphere with 5% CO2. After detaching the cells with trypsin, they were quantified using a Scepter 3.0 automated cell counter (Millipore, Burlington, MA, USA).
(§3) The metabolic activity of cells exposed to the tested derivatives, doxorubicin, and DMSO, was assessed using an MTT assay according to the manufacturer’s protocol (Sigma-Aldrich, St. Louis, MO, USA). Adherent cells were seeded into 96-well plates (5000–10,000 cells in 100 µL of growth medium per well) and allowed to adhere overnight before treatment. For lymphocytes, activation with phytohemagglutinin-L (1 µg/mL) was performed for 24 h, after which they were seeded in 96-well plates at a density of 100,000 cells/well in RPMI-1640 medium supplemented with 20% FBS. The test substances, including Les-6547, Les-6557, and doxorubicin, were added to 100 µL of culture medium to achieve final concentrations of 0 µM, 0.1 µM, 1 µM, 2.5 µM, 10 µM, and 100 µM for all compounds, and the cells were further incubated for 24, 48, or 72 h. DMSO-treated cells served as the control. Then, 20 µL of MTT solution (5 mg/mL) was added and incubated for 2–4 h to allow formazan crystal formation. The formazan crystals were then solubilized by adding DMSO. The absorbance of formazan was measured at 570 nm using a ThermoScientific Evolution 201 UV-VIS spectrophotometer (ThermoFisher Scientific, Waltham, MA, USA). The control condition with 0.5% DMSO was considered 100% viability. The IC50 values for the compounds were determined using GraphPad Prism 8 and 9 software (GraphPad Software, Boston, MA, USA).

[4] = system: HT-29 colorectal adenocarcinoma cells; assay: MTT assay; format: cell-based; conditions: Homo sapiens, HT-29, MTT, M ± SD, n = 3, read-out: IC50
Protocol: as §2, §3

[5] = system: HaCaT (human keratinocytes); assay: MTT assay; format: cell-based; conditions: 72 h, M ± SD, n = 3
Protocol: as §2, §3

[6] = system: Balb/c 3T3 (mouse fibroblasts); assay: MTT assay; format: cell-based; conditions: BALB/c3T3, Balb/c 3T3, MTT, 72 h, M ± SD, n = 3
Protocol: as §2, §3

Human blood lymphocytes = assay: MTT assay; format: cell-based; conditions: Lymphocyte, human blood lymphocytes, 72 h, M ± SD, n = 3
Protocol: Lymphocytes from human peripheral blood were isolated with sodium heparin (10 U/mL) as an anticoagulant. Isolation was performed through a density gradient method with the Gradisol G, following a modified procedure. Peripheral blood was mixed with Gradisol G in equal proportions (1:1) and centrifuged at 400× g for 30 min at room temperature. The cells were collected, washed in phosphate-buffered saline (PBS), and treated with a hypotonic solution to remove residual erythrocytes. Lymphocytes were activated by phytohemagglutinin-L (1 µg/mL) and cultured in RPMI-1640 medium supplemented with 20% fetal bovine serum under controlled conditions of 95% air and 5% CO2 [27].
as §3

[7] = system: DLD-1 colorectal adenocarcinoma cells; assay: [^3H]-thymidine incorporation assay (DNA biosynthesis); format: cell-based; conditions: Homo sapiens; DLD-1, 24 h, M ± SD, n = 3
Protocol: (§4) The anti-proliferative potential of Les-6547 and Les-6557 was analyzed using a clonogenic assay and incorporation of radioactive [^3H]-thymidine into the DNA of colorectal adenocarcinoma HT-29 and DLD-1 cell lines after 24 h of incubation with various concentrations of the tested agents.
(§5) Next, we examined the effects of the tested compounds on the proliferative activity of human colorectal adenocarcinoma cells by assessing their ability to influence DNA biosynthesis using the thymidine incorporation assay (Figure 6, Table 8). Les-6547 decreased DNA biosynthesis in DLD-1 cells to 50% at a concentration of 2.19 ± 0.39 µM.

[8] = system: HT-29 colorectal adenocarcinoma cells; assay: as above; format: cell-based; conditions: Homo sapiens; HT-29, 24 h, M ± SD, n = 3
Protocol: as §4, §5

IC50 ([1]; Homo sapiens, DLD-1, 72 h treatment, 14 days of incubation, M ± SD, n = 3): 3.23 ± 0.05 µM
IC50 ([2]; HT-29, 72 h treatment, 14 days of incubation, n = 3): ~500 nM
IC50 ([3]; 24 h): 65300 ± 6080 nM
IC50 ([3]; 48 h): 2010 ± 90 nM
IC50 ([3]; 72 h): 760 ± 100 nM
IC50 ([4]; 24 h): 17000 ± 880 nM
IC50 ([4]; 48 h): 1550 ± 140 nM
IC50 ([4]; 72 h): 2110 ± 60 nM
IC50 [7]: 6.39 ± 0.02 µM
IC50 [8]: 4.72 ± 0.8 µM
SMILES: COc1cccc2c1C(=O)c1c(O)c3c(c(O)c1C2=O)C[C@@](O)(C(=O)CO)C[C@@H]3O[C@H]1C[C@H](N)[C@H](O)[C@H](C)O1 [Doxorubicin, doxorubicin, reference compound]
colony growth ([1]; DLD-1, 10 µM): 3.86%
inhibition at 1 µM ([2]; HT-29, 1 µM, read-out: inhibition of colony formation): 100%
IC50 [5]: 900 ± 100 nM
IC50 [6]: 560 ± 110 nM
IC50 (Human blood lymphocytes): 710 ± 110 nM

From publication PMC11941218, “Juglone-Bearing Thiopyrano[2,3-d]thiazoles Induce Apoptosis in Colorectal Adenocarcinoma Cells” (Cells, 2025)
